For 30 molecules, melting point and Locomotor activity results are on record in patent US8314126B2, “Disubstituted phenylpiperdines/piperazines as modulators of dopamine neurotransmission” (NSAB, Filial af Neurosearch Sweden AB, Sverige, priority 2004, dated 2012).

The test system of one series is drug-naive rats. As to the kind of experiment: Locomotor activity in drug-naive rats. The conditions noted are these: drug-naive rats, recorded for 60 minutes, ± SEM.

Where a name gives a salt, the structure may show the parent alone.

Regarding `CCN1CCC(c2cccc(C(C)=O)c2F)CC1`, the melting point was 199 to 202 °C.

The molecule `CCN1CCC(c2cccc(S(=O)(=O)N(C)C)c2F)CC1` (as salt: fumaric acid salt) had a melting point of 151 to 152 °C.

Consider `CCN1CCC(c2cccc(C(=O)C(F)(F)F)c2F)CC1` (as salt: fumaric acid salt), for which the melting point is 109 to 110 °C.

The molecule `CCCN1CCN(c2cccc(C#N)c2C(F)(F)F)CC1` (as salt: hydrochloric acid salt) showed a melting point of 234 to 236 °C.

For `CCCN1CCN(c2cccc(S(C)(=O)=O)c2F)CC1` (as salt: hydrochloric acid salt), the melting point is 241 to 243 °C.

For `CCN1CCC(c2cccc(S(=O)(=O)C(F)(F)F)c2F)CC1` (as salt: hydrochloric acid salt), the melting point was in the range of 189 to 191 °C.

In turn, `CCN1CCN(c2cccc(S(C)(=O)=O)c2F)CC1` (as salt: hydrochloric acid salt) showed a melting point of 214 to 216 °C.

On to `CCCN1CCC(c2cccc(S(C)(=O)=O)c2F)CC1` (as salt: hydrochloric acid salt) [Example 1, 4-[2-FLUORO-3-(METHYLSULFONYL)PHENYL]-1-PROPYLPIPERIDINE], for which the melting point fell in the range of 255 to 257 °C.

`CCCN1CCC(c2cccc(S(C)(=O)=O)c2Cl)CC1` (as salt: hydrochloric acid salt) [Example 3, 4-[2-CHLORO-3-(METHYLSULFONYL)PHENYL]-1-PROPYLPIPERIDINE] displayed a melting point of 250 to 252 °C.

In turn, `CCCN1CCC(c2cccc(S(C)(=O)=O)c2C)CC1` (as salt: hydrochloric acid salt) [Example 4, 4-[2-METHYL-3-(METHYLSULFONYL)PHENYL]-1-PROPYLPIPERIDINE] showed a melting point of 233 to 235 °C.

In turn, `CCCN1CCC(c2cccc(S(C)(=O)=O)c2N)CC1` (as salt: hydrochloric acid salt) [Example 6, 2-(METHYLSULFONYL)-6-(1-PROPYLPIPERIDIN-4-YL)ANILINE] showed a melting point of 232 to 233 °C.

`CCCN1CCC(c2cccc(C(F)(F)F)c2C#N)CC1` (as salt: hydrochloric acid salt) [Example 7, 2-(1-PROPYLPIPERIDIN-4-YL)-6-(TRIFLUOROMETHYL)BENZONITRILE] registered a melting point of 272 to 274 °C.

As for `CCCN1CCC(c2cccc(C(F)(F)F)c2OC)CC1` (as salt: hydrochloric acid salt) [Example 8, 4-[2-METHOXY-3-(TRIFLUOROMETHYL)PHENYL]-1-PROPYLPIPERIDINE], the melting point amounted to 235.5 °C.

Molecule `CCCN1CCN(c2cccc(C(F)(F)F)c2F)CC1` (as salt: hydrochloric acid salt) [Example 9, 1-[2-FLUORO-3-(TRIFLUOROMETHYL)PHENYL]-4-PROPYLPIPERAZINE] came in with a melting point of 180 to 181 °C.

`COCCN1CCN(c2cccc(C(F)(F)F)c2F)CC1` (as salt: hydrochloric acid salt) [Example 10, 1-[2-FLUORO-3-(TRIFLUOROMETHYL)PHENYL]-4-(2-METHOXYETHYL)PIPERAZINE] yielded a melting point of 170 to 171 °C.

The molecule `CCCN1CCN(c2cccc(Cl)c2Cl)CC1` (as salt: hydrochloric acid salt) [Example 11, 1-(2,3-DICHLOROPHENYL)-4-PROPYLPIPERAZINE] showed a melting point of 220 to 221 °C.

The molecule `CCCN1CCC(c2cccc(C#N)c2C(F)(F)F)CC1` (as salt: hydrochloric acid salt) [Example 13, 3-(1-PROPYLPIPERIDIN-4-YL)-2-(TRIFLUORO-METHYL)BENZONITRILE] came in with a melting point of 266 to 269 °C.

For `CS(=O)(=O)c1cccc(C2CCN(CCC3OCCO3)CC2)c1F` (as salt: hydrochloric acid salt) [Example 26, 1-[2-(1,3-DIOXOLAN-2-YL)ETHYL]-4-[2-FLUORO-3-(METHYLSULFONYL)PHENYL]-PIPERIDINE], the melting point fell in the range of 224 to 225 °C.

`OCCN1CCC(c2cccc(C(F)(F)F)c2F)CC1` (as salt: hydrochloric acid salt) [Example 27, 2-{4-[2-FLUORO-3-(TRIFLUOROMETHYL)PHENYL]PIPERIDIN-1-YL}ETHANOL] came in with a melting point of 224 to 226 °C.

As for `CCCN1CCC(c2cccc(C(F)(F)F)c2O)CC1` (as salt: hydrochloric acid salt) [Example 29, 2-(1-PROPYLPIPERIDIN-4-YL)-6-(TRIFLUOROMETHYL)PHENOL], the melting point lay in the range of 218 to 220 °C.

Regarding `CCCN1CCC(c2cccc(OC(F)(F)F)c2O)CC1` (as salt: hydrochloric acid salt) [Example 30, 2-(1-PROPYLPIPERIDIN-4-YL)-6-(TRIFLUOROMETHOXY)PHENOL], the melting point was in the range of 203 to 205 °C.

In turn, `OCCCN1CCC(c2cccc(C(F)(F)F)c2F)CC1` (as salt: hydrochloric acid salt) [Example 32, 3-{4-[2-FLUORO-3-(TRIFLUOROMETHYL)PHENYL]PIPERIDIN-1-YL}PROPAN-1-OL] yielded a melting point of 259 to 261 °C.

Turning to `C=CCN1CCC(c2cccc(S(C)(=O)=O)c2F)CC1` (as salt: hydrochloric acid salt) [Example 40, 1-ALLYL-4-[2-FLUORO-3-(METHYLSULFONYL)PHENYL]PIPERIDINE], the melting point lay within 259 to 261 °C.

On to `COCCN1CCC(c2cccc(C(F)(F)F)c2F)CC1` (as salt: hydrochloric acid salt) [Example 47, 4-[2-FLUORO-3-(TRIFLUOROMETHYL)PHENYL]-1-(2-METHOXYETHYL)PIPERIDINE], for which the melting point is 180 to 181 °C.

With `C=CCN1CCC(c2cccc(C(F)(F)F)c2F)CC1` (as salt: hydrochloric acid salt) [Example 70, 1-ALLYL-4-[2-FLUORO-3-(TRIFLUOROMETHYL)PHENYL]PIPERIDINE], the melting point fell in the range of 224 to 226 °C.

With `CCCN1CCC(c2cccc(C(F)(F)F)c2F)CC1` (as salt: hydrochloric acid salt) [Example 71, 4-[2-FLUORO-3-(TRIFLUOROMETHYL)PHENYL]-1-PROPYLPIPERIDINE], the melting point lay in the range of 258 to 260 °C.

In the case of `CCN1CCC(c2cccc(S(C)(=O)=O)c2Cl)CC1` (as salt: hydrochloride) [Example 28, 4-[2-CHLORO-3-(METHYLSULFONYL)PHENYL]-1-ETHYLPIPERIDINE], the melting point fell in the range of 264 to 265 °C.

`CCN1CCC(c2cccc(S(C)(=O)=O)c2F)CC1` (as salt: maleic acid salt) [Example 2, 1-ETHYL-4-[2-FLUORO-3-(METHYLSULFONYL)PHENYL]-PIPERIDINE] returned a melting point of 112 to 113 °C.

`CCN1CCC(c2cccc(OS(=O)(=O)C(F)(F)F)c2F)CC1` (as salt: methanesulfonate) [Example 34, 3-(1-ETHYLPIPERIDIN-4-YL)-2-FLUOROPHENYL TRIFLUOROMETHANESULFONATE]: the melting point fell in the range of 158 to 159 °C.

With `CCN1CCC(c2cccc(S(C)(=O)=O)c2F)CC1` [drawing 29], the values for the Locomotor activity with drug-naive rats (11 μmol/kg), with drug-naive rats (33 μmol/kg) and in the series with drug-naive rats (100 μmol/kg) were 13113 ± 1795 counts/60 min, 12744 ± 1291 counts/60 min and 12530 ± 2577 counts/60 min, respectively.
